What was measured:
hDAT [1] = biological target: T1, hDAT (Homo sapiens, UniProt Q01959); assay: [3H]-WIN-35,428 binding inhibition in N2A neuroblastoma cells expressing hDAT
rDAT [2] = biological target: T2, rDAT (Rattus norvegicus, UniProt P23977); conditions: pattern previously seen; ref [7]; cited from earlier work
[3] = Storage stability of the radioligand by HPLC; type: physicochemical; conditions: 25 days at −20 °C in the dark; initial purity 99%
rDAT [4] = biological target: T2, rDAT; conditions: LLC-PK1 cells expressing rDAT
6Xhis-hDAT = 6Xhis-hDAT (Homo sapiens, UniProt Q01959); conditions: 100 μM (−)-cocaine; HEK 293 cells expressing 6Xhis-hDAT
Chain of 6Xhis-hDAT (Q01959 whole entry): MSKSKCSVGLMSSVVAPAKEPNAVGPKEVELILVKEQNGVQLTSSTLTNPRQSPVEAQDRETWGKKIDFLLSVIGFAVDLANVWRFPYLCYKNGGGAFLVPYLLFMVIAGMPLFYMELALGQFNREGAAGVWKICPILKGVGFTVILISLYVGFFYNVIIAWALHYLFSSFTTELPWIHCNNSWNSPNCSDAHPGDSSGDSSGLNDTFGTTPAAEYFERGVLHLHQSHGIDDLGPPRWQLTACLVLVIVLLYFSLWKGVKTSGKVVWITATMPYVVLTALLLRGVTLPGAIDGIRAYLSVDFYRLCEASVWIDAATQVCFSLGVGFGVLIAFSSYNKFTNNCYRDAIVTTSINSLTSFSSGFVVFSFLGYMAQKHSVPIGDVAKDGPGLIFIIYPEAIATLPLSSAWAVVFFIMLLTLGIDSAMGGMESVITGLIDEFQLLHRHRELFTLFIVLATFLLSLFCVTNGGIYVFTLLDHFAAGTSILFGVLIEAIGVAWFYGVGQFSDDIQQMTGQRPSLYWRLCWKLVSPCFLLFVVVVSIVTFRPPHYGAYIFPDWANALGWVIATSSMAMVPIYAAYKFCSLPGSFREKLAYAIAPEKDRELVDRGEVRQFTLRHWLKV

hDAT [5] = biological target: T1, hDAT; assay: [3H]-dopamine uptake inhibition in N2A neuroblastoma cells expressing hDAT; type: cell-based; conditions: uptake IC50 higher than binding Ki

T1 sequence (Q01959 whole entry): as above
T2 sequence (P23977 whole entry): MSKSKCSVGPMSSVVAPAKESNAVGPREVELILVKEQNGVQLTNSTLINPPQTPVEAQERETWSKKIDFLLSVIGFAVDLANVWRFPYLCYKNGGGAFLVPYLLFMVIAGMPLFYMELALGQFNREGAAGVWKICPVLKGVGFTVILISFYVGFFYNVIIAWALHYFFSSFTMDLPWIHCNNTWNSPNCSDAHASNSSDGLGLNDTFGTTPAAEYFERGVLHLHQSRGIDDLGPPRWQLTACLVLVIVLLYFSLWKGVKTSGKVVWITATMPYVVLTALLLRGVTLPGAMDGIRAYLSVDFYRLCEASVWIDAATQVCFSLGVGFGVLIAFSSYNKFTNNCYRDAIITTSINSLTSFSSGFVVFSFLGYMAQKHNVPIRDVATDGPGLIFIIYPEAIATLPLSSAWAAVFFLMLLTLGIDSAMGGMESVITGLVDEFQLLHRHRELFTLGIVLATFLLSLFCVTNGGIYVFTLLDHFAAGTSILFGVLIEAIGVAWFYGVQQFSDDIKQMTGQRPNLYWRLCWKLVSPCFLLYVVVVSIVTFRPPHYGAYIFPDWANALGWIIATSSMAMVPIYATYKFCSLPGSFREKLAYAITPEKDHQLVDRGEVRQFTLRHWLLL

With `CCCC(C(=O)c1ccc(N=[N+]=[N-])c(I)c1)N1CCCC1` (stereo not drawn) [Compound 6, 1-(4-Azido-3-iodophenyl)-2-pyrrolidin-1-yl-pentan-1-one] the “DAT affinity, fold higher than bupropion” value (hDAT [1]; ratio of Ki values versus bupropion) was 6 fold and the “DAT affinity, fold less than pyrovalerone” value (hDAT [1]; ratio of Ki values versus pyrovalerone) was 10 fold.
In the case of `C[C@@H]1CN(CCCn2c3ccccc3c3ccccc32)C[C@H](C)N1` [rimcazole], the “Binding versus uptake inhibition value (pattern)” value (rDAT [2]) is listed as “essentially the same value”.
For `CCCC(C(=O)c1ccc(N=[N+]=[N-])c([125I])c1)N1CCCC1` (stereo not drawn) [[^125I]-6, [^125I]-1-(4-Azido-3-iodophenyl)-2-pyrrolidin-1-yl-pentan-1-one], the “Radiochemical purity after storage (stability)” value [3] was 92% and the “Incorporation into DAT on photoactivation (labeled protein of ~80 kDa)” value (rDAT [4]; 30 nM radioligand, 1 h, 4°C, UV 254 nm, 45 s) was “incorporation”.
In the case of `CN1[C@@H]2CC[C@H]1C[C@@H](OC(c1ccccc1)c1ccccc1)C2` [benztropine], the “Binding versus uptake inhibition value (pattern)” value (rDAT [2]) is listed as “essentially the same value”.
For `COC(=O)[C@H]1[C@@H](OC(=O)c2ccccc2)C[C@@H]2CC[C@H]1N2C` [cocaine, reference compound], the “Effect on [125I]-6 photolabeling of DAT” value (6Xhis-hDAT) was “blocked” and the “Effect on [125I]-6 photolabeling of DAT” value (rDAT [4]; 100 μM (−)-cocaine) was “blocked”.
In the case of `CCCC(C(=O)c1ccc(N)cc1)N1CCCC1` (stereo not drawn) [Compound 8, 1-(4-Aminophenyl)-2-pyrrolidin-1-yl-pentan-1-one], the “Uptake inhibition IC50 relative to binding Ki” value (hDAT [5]) is reported as “essentially the same value”.
